Assays:
Assay type in all cases: binding
[1] = target: T1, SHM4 (Arabidopsis thaliana, UniProt O23254); assay: SPR competition on 3AESA chip; competition of 4AzSA photo-crosslinking; details: 1-5 mM SA, HBS-EP pH 7.4 (SPR); competes with 3AESA and 4AzSA
T1 construct: N-terminal His6 (pET28a), from E. coli
T1 sequence (O23254 1-471): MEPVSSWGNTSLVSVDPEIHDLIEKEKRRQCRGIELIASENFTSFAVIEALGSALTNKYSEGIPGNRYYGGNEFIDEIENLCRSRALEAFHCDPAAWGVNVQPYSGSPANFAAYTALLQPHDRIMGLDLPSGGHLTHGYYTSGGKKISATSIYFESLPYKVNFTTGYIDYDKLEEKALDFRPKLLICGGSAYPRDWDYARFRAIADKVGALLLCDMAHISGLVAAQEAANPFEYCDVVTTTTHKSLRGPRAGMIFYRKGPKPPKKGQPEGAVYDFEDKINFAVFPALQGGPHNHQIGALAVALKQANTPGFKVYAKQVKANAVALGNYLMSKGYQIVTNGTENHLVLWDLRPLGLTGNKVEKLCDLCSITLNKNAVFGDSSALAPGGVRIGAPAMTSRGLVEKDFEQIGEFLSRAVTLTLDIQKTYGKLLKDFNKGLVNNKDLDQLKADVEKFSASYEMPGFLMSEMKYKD

[2] = target: T2, LOX2 (Arabidopsis thaliana, UniProt P38418); assay: as above; details: 1-5 mM SA, HBS-EP pH 7.4 (SPR); competes with 3AESA and 4AzSA
T2 construct: N-terminal His6 (pET28a), from E. coli
T2 sequence (P38418 57-896): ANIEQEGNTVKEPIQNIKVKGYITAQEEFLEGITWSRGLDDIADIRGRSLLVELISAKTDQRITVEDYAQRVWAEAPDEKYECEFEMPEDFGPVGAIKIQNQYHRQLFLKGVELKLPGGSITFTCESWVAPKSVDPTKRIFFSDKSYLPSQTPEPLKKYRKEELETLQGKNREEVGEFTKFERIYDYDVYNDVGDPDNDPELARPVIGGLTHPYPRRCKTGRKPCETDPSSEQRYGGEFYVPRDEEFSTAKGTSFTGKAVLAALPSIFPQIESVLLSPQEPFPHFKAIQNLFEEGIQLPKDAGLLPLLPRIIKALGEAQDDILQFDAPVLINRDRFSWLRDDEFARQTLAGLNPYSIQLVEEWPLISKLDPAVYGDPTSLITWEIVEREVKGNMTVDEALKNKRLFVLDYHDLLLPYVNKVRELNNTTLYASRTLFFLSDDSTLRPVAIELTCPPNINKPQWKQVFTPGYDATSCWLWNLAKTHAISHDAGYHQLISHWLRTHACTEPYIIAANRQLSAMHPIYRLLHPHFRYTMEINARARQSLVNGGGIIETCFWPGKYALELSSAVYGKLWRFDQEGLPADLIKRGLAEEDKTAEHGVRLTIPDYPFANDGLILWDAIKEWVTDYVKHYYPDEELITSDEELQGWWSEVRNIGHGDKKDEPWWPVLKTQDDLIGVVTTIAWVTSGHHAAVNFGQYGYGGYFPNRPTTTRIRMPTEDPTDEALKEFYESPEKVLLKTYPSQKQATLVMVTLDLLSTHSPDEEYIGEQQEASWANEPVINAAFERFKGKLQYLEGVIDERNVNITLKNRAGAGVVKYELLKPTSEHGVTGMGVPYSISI

[3] = target: T3, TPPII (Arabidopsis thaliana, UniProt F4JVN6); assay: UV photo-crosslinking, anti-SA immunoblot; details: 50 uM 4AzSA, PBS, on ice, 254 nm UV; covalent; competed by SA
T3 construct: gene TPP2; N-terminal His6 (pET28a), from E. coli
T3 sequence (F4JVN6 1-1380): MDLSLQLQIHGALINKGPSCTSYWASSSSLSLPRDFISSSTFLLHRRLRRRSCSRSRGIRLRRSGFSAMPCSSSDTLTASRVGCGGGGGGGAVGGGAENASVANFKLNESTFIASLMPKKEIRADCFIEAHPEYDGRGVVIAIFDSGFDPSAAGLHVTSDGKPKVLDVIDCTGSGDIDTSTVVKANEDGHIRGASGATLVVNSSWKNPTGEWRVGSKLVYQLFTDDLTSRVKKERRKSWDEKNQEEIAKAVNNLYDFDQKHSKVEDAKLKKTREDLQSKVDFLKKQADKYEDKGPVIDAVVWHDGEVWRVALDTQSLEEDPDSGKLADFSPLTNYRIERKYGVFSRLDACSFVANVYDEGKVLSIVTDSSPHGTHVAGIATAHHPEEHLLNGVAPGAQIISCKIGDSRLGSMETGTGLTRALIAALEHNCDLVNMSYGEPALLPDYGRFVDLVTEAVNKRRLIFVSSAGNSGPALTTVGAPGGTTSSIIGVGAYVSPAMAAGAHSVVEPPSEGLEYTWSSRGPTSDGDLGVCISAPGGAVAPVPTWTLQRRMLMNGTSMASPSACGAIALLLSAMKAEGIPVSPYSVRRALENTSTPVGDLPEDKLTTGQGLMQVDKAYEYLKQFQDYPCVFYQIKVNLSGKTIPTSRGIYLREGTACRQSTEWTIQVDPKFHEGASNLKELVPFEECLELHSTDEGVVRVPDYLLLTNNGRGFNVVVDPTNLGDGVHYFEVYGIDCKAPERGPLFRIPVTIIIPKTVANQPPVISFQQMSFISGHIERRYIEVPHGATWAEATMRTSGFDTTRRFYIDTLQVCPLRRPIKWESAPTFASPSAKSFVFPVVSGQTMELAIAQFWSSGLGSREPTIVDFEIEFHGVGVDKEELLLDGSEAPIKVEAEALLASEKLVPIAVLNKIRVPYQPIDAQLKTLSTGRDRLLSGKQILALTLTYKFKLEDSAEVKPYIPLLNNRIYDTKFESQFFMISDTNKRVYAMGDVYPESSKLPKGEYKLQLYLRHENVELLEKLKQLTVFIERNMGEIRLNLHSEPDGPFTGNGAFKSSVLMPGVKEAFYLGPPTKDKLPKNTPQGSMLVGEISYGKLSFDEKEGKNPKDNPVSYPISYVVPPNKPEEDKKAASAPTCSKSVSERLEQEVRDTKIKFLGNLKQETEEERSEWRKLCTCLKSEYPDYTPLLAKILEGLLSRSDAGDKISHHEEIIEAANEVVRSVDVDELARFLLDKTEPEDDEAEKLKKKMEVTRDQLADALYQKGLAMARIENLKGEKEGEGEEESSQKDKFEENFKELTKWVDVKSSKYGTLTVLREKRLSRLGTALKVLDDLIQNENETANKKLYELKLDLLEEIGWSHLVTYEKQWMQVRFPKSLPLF

SMILES | SPR competition on 3AESA chip; competition of 4AzSA photo-crosslinking [1] | SPR competition on 3AESA chip; competition of 4AzSA photo-crosslinking [2] | UV photo-crosslinking, anti-SA immunoblot [3]
O=C(O)c1ccccc1O [SA] | SA competes with 3AESA and 4AzSA for binding by TRX-m1, TPPII, SHM4, and LOX2 | SA competes with 3AESA and 4AzSA for binding by TRX-m1, TPPII, SHM4, and LOX2 | –
[N-]=[N+]=Nc1ccc(C(=O)O)c(O)c1 [4AzSA] | – | – | These five proteins also bound and crosslinked to 4AzSA
